# Legend:
# [1] = molecular target: T1, RARγ (Homo sapiens, UniProt P13631); test: ligand binding assay; conditions: last line of the stacked cell, read-out: RAR Kd γ
# T1 sequence (P13631 1-454): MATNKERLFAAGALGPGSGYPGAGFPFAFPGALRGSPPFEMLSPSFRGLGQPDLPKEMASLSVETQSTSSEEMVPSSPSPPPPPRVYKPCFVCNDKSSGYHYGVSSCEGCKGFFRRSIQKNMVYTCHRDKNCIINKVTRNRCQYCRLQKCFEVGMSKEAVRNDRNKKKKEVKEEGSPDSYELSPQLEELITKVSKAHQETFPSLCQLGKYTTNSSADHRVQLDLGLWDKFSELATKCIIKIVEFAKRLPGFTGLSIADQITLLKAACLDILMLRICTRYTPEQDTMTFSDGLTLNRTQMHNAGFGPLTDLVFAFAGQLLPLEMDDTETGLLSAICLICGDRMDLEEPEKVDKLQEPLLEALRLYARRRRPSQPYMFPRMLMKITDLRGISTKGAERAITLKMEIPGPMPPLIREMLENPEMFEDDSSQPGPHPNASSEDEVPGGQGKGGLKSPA
# Text: (§1) Assays described below measure the ability of a compound to bind to, and/or activate various retinoid receptor subtypes. When in these assays a compound binds to a given receptor subtype and activates the transcription of a reporter gene through that subtype, then the compound is considered an agonist of that receptor subtype. […] In the below described assays the ability of the compounds to bind to RARα, RARβ, RARγ, RXRα, RXRβ and RXRγ receptors, and the ability or inability of the compounds to activate transcription of a reporter gene through these receptor subtypes can be tested.
# (§2) The results obtained in this assay are expressed in EC50 numbers, as they are also in the chimeric receptor transactivation assay. The results of ligand binding assay are expressed in Kd numbers.
# [2] = system: SKH1-hrBR or hairless mouse; test: topical skin irritation test in hairless mice; type: in vivo; conditions: topical in acetone, once daily days 1 through 5, mean ±SD, range 0-21
# Text: Mice were housed individually throughout the dosing period.
# Doses are disclosed as nmol/25 g.
# The grading scale used is as follows:
# Values can range from 0-9.
# Values can range from 0-8.
# [3] = molecular target: T2, RARβ (Homo sapiens, UniProt P10826); test: ligand binding assay; conditions: last line of the stacked cell, read-out: RAR Kd β
# T2 sequence (P10826 1-455): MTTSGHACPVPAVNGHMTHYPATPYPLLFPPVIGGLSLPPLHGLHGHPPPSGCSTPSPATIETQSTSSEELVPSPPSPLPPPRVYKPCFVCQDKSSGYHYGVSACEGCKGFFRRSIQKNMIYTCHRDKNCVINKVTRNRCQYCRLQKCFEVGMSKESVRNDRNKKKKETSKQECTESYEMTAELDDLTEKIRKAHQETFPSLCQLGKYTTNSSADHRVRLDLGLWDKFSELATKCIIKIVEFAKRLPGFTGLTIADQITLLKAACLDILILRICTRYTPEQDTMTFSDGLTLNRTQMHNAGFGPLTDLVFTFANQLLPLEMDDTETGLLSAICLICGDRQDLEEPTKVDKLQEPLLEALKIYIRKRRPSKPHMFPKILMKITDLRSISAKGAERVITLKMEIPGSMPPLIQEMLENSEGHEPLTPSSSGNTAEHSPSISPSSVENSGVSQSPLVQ
# Text: as §1, §2
SMILES,Kd [1] [µM],Cutaneous Toxicity Score (Blackjack Score) ([2]; 100 nmole (nmol/25 g)),Cutaneous Toxicity Score (Blackjack Score) ([2]; 1000 nmole (nmol/25 g)),Kd [3] [µM],Cutaneous Toxicity Score (Blackjack Score) ([2]; 300 nmole (nmol/25 g))
"CCCN(CCC)C1(c2ccc(C#Cc3ccc(C(=O)O)cc3)cc2)CC1 [Compound 110, 4-[4-(1-Dipropylamino-cyclopropyl)-phenylethynyl]-benzoic acid]",> 10,,,,
"CC1(C)CC(C)(C)c2cc(C#Cc3ccc(CC(=O)O)c(F)c3)cc(C3CC3)c2O1 [Compound 38, [4-(8-Cyclopropyl-2,2,4,4-tetramethyl-chroman-6-yl-ethynyl)-2-fluorophenyl] acetic acid]",,1 ± 1,10 ± 1,,
"CC1(C)CC(C)(C)c2cc(C(=O)Oc3ccc(CC(=O)O)cc3)ccc2O1 [Compound 46, 2,2,4,4-Tetramethyl-chroman-6-carboxylic acid 4-(carboxymethyl)phenyl ester]",> 10,,,> 10,
"Cc1cc(C#Cc2ccc(CC(=O)O)cc2)ccc1Cn1ccnc1 [Compound 121, [4-(4-Imidazol-1-yl-methyl-3-methyl-phenylethynyl)-phenyl]-acetic acid]",,,,> 100,
"CC1(C)CC2(CC2)Oc2c(C3CC3)cc(C(=O)Oc3ccc(CC(=O)O)cc3)cc21 [Compound 58, Spiro[2H-1-benzopyran-2,1′-cyclopropane]-6-carboxylic acid, 8-cyclopropyl-3,4-dihydro-4,4-dimethyl-, 4-(carboxymethyl)phenyl ester]",,0 ± 0,0 ± 0,,0 ± 0
"CC1(C)CC2(CC2)Oc2c(C3CC3)cc(C#Cc3ccc(CC(=O)O)cc3)cc21 [Compound 48, Benzeneacetic acid, 4-[(8-cyclopropyl-3,4-dihydro-4,4-dimethylspiro[2H-1-benzopyran-2,1′-cyclopropane]-6-yl)ethynyl]-]",,1 ± 1,7 ± 2,,3 ± 1
"CC1(C)CC(C)(C)c2cc(C#Cc3ccc(CC(=O)O)cc3)cc(C3CC3)c2O1 [Compound 36, [4-(8-Cyclopropyl-2,2,4,4-tetramethyl-chroman-6-yl-ethynyl)phenyl]acetic acid]",,1 ± 1,11 ± 0,,
"CN(C1CC1)C1CCC(C)(C)c2cc(C#Cc3ccc(CC(=O)O)cc3)ccc21 (stereo not shown) [Compound 8, 4-[(5-(Cyclopropyl-methyl-amino)-8,8-dimethyl-5,6,7,8-tetrahydro-naphthalene-2-yl-ethynyl)-phenyl]-acetic acid]",,5 ± 2,12 ± 1,,8 ± 3
"CC1(C)CCC(=O)c2ccc(C#Cc3ccc(CC(=O)O)c(F)c3)cc21 [Compound 15, [2-Fluoro-4-(8,8-dimethyl-5-oxo-5,6,7,8-tetrahydro-naphthalene-2-yl-ethynyl)phenyl]-acetic acid]",,1 ± 1,5 ± 2,,
"O=C(O)c1ccc(C#Cc2ccc(C3(N(Cc4ccccc4)Cc4ccccc4)CC3)cc2)cc1 [Compound 114, 4-[4-(1-Dibenzylamino-cyclopropyl)-phenylethynyl]-benzoic acid]",,,,> 10,
"CC1(C)CCC(n2ccnc2)c2ccc(C#Cc3ccc(CC(=O)O)cc3)cc21 (stereo not shown) [Compound 137, [4-(5-Imidazol-1-yl-8,8-dimethyl-5,6,7,8-tetrahydro-naphthalen-2-yl-ethynyl)-phenyl]-acetic acid]",,1 ± 1,5 ± 2,,1 ± 1
"CC1(C)CCC(=O)c2ccc(C#Cc3ccc(CC(=O)O)cc3)cc21 [Compound 5, 4-[(8,8-Dimethyl-5-oxo-5,6,7,8-tetrahydro-naphthalene-2-yl-ethynyl)-phenyl]-acetic acid]",,0,6 ± 3,,
"CN(C1CC1)C1CCC(C)(C)c2cc(C#Cc3ccc(CC(=O)O)c(F)c3)ccc21 (stereo not shown) [Compound 18, [4-(5-(Cyclopropyl-methyl-amino)-8,8-dimethyl-5,6,7,8-tetrahydro-naphthalene-2-yl-ethynyl)-2-fluoro-phenyl]-acetic acid]",,0 ± 0,10 ± 2,,5 ± 2
"CCN(Cc1ccc(C#Cc2ccc(CC(=O)O)cc2)cc1C)C1CC1 [Compound 131, (4-{4-[(Cyclopropyl-ethyl-amino)-methyl]-3-methyl-phenylethynyl}-phenyl)-acetic acid]",,1 ± 1,1 ± 1,,0 ± 1
"CC1(C)CN(C2CC2)Cc2ccc(C#Cc3ccc(CC(=O)O)c(F)c3)cc21 [Compound 22, [4-(2-Cyclopropyl-4,4-dimethyl-1,2,3,4-tetrahydro-isoquinolin-6-yl-ethynyl)-2-fluoro-phenyl]-acetic acid]",,0 ± 0,1 ± 1,,0 ± 0
CC1(C)CC2(CC2)Oc2c(C3CC3)cc(C#Cc3ccc(CC(=O)O)c(F)c3)cc21 [Compound 50],,1 ± 0,8 ± 2,,3 ± 2

# From patent US6369261B1, “Compounds having activity as inhibitors of cytochrome P450RAI” (Allergan Sales, Inc., priority 2000, dated 2002)
